Experimental data: patent US20250288704A1, “CXCR4-LIGANDS FOR DIAGNOSTIC AND THERAPEUTIC USE AND PRECURSORS THEREOF” (priority 2021, published 2025)
Positions of bridges follow the written chain, without caps; N, C: chain ends. Non-standard residues stand in square brackets, D forms with d. Residues, ends and D or L forms follow the SMILES beside them. Groups on a side chain read outwards from the residue. Chains are numbered I, II in the order given. *: point of attachment. X2 = OC[C@H]1O[C@@H](O[C@H]2[C@H](O)[C@@H](O)[C@H](*)O[C@@H]2CO)[C@H](O)[C@@H](O)[C@H]1O; X3 = OCC1OC(OC2C(CO)OC(*)C(O)C2O)C(O)C(O)C1O; 2Nal = N[C@@H](Cc1ccc2ccccc2c1)C(=O)O; dCit = NC(=O)NCCC[C@@H](N)C(=O)O; dNMeOrn = CN[C@H](CCCN)C(=O)O; d(hCys) = N[C@H](CCS)C(=O)O; HYNIC = NNc1ccc(C(=O)*)cn1; Mercaptoacetyl = O=C(CS)*; X4 = OCC1OC(*)C(O)C(O)C1O; 4Abz = Nc1ccc(C(=O)O)cc1; dDap = NC[C@@H](N)C(=O)O

Columns and labels:
[1] = tested on: CXCR4-expressing Chem_1 cells; assay: Determination of internalization, dual tracer with 125I-Fc-131; type: cell-based; conditions: for Cell-bound [%] / Internalized [%]: of total cellular activity
Summary of the method: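 Receptor blockade used AMD3100 (1 mM stock) versus medium-treated wells, triplicate per time point, in Chem_1 cells cultured at 37 °C in DMEM-F12/10% FBS. Activity of supernatant, surface-bound and internalized (1 M NaOH) fractions measured by γ-counter, corrected for non-specific uptake and normalised to standard ligand.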

[2] = Octanol/PBS partition coefficient (logD7.4); type: physicochemical; conditions: n-octanol/PBS pH 7.4, radiolabeled compound
Experimental: The tubes were vortexed at maximum speed for 3 min to ensure equilibrium before centrifugation at 15.000×g for 5 min on a Biofuge 15 from Heraeus Holding GmbH (Osterode, Germany). An aliquot of 100 μL of each fraction was measured in the γ-counter and the log D7.4 calculated as follows: […]

CXCR4 [3] = biological target: T1, CXCR4 (Homo sapiens, UniProt P61073); assay: Determination of inverse IC50 (invIC50): radiolabeled peptide displaced by Fc-131 on Jurkat cells
T1 sequence (P61073 whole entry): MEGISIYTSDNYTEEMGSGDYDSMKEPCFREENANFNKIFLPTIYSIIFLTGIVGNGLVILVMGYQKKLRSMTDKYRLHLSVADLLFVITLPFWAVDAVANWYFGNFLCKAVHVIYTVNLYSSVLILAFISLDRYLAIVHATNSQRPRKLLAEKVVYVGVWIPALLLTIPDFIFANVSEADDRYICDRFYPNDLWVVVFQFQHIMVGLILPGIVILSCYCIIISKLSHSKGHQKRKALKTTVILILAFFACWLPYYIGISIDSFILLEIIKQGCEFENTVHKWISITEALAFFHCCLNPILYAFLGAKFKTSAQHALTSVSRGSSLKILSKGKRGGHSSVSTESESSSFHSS
Experimental: For in vitro experiments, cells were counted in a hemocytometer using trypan blue as contrast agent. The cell suspension was centrifuged, and the pellet resuspended in HBSS (+1 wt % BSA) to a concentration of 2 mio cells/mL. 8×3 polystyrene tubes were loaded with 25 μL of the standard ligand ^125I-Fc-131 (see 4.1, 1.00 nM in HBSS) and 25 μL of the ligand to investigate in the respective concentration (10^−4-10^−10 M, n=3 for each concentration). 200 μL of cell suspension (400.000 cells per well) were added to obtain a final peptide concentration range of 10^−5-10^−11 M. The tubes were cooled for 2 h at 8° C. to prevent internalization. The experiment was stopped by removal of the supernatant. 200 μL HBSS were added onto the cells, the suspension centrifuged, and the supernatant pooled with the respective first fractions. This step was repeated once more before the tubes containing the supernatants and the ones containing the cell pellets were subjected to activity measurement in the γ-counter.
For the determination of inverse IC50 (invIC50) values the protocol for the determination of regular IC50 values was resumed with minor changes. The peptide under investigation was radioactively labeled and a stock solution was prepared in HBSS (2.00 nM). A concentration gradient of the standard ligand Fc-131 was prepared in HBSS (10^−4-10^−10 M). A cell tube was then containing 25 μL of the radioactive peptide solution, 25 μL of the respective Fc-131 solution and 200 μL cell suspension (400.000 cells). The experiment was conducted as described above.

CXCR4 [4] = biological target: T1, CXCR4; assay: Determination of IC50: competition with 125I-Fc-131 on CXCR4-positive Jurkat cells; type: binding; design: CXCR4-positive Jurkat T lymphocyte cells were grown in Gibco's RPMI 1640 GlutaMAX medium; endogenous in cells; host or cells: Jurkat T lymphocyte cells (whole cells in suspension, 400.000 per tube);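 further: test compound at 10^−5 to 10^−11 M competed for 2 h at 8 °C with the radioligand on 400,000 cells per well, bound versus free activity measured by γ-counting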
[5] = Biodistribution in Jurkat tumor-bearing CB-17 SCID mice; type: in vivo; conditions: female, CB-17 SCID, mouse, in vivo, iv, total radioactivity
Summary of the method: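 Radioligand (125I, 177Lu, 99mTc, 18F or 68Ga label; roughly 0.5-20 MBq, 0.02-0.20 nmol) was injected intravenously via tail vein. Hosts were CB17-SCID mice with subcutaneous Jurkat tumors of 5-8 mm, 4-10 weeks post-inoculation. Dissected organs were weighed and counted in a γ-counter.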

SMILES	Internalized in relation to 125I-Fc-131 [%] ([1]; 30 min)	Cell-bound [%] ([1]; 30 min)	Internalized [%] ([1]; 30 min)	Internalization [% Fc-131] ([1]; 90 min)	Internalized in relation to 125I-Fc-131 [%] ([1]; 90 min)	Cell-bound [%] ([1]; 90 min)	logD7.4 [2]	IC50 (CXCR4 [3]) [nM]	tissue uptake at 1 h ([5]; % iD/g Blood) [%ID/g]	tissue uptake at 1 h ([5]; % iD/g Bone) [%ID/g]	tissue uptake at 1 h ([5]; % iD/g Heart) [%ID/g]	tissue uptake at 1 h ([5]; % iD/g Intestine) [%ID/g]	tissue uptake at 1 h ([5]; % iD/g Kidney) [%ID/g]	tissue uptake at 1 h ([5]; % iD/g Liver) [%ID/g]	tissue uptake at 1 h ([5]; % iD/g Lung) [%ID/g]	tissue uptake at 1 h ([5]; % iD/g Muscle) [%ID/g]	tissue uptake at 1 h ([5]; % iD/g Pancreas) [%ID/g]	tissue uptake at 1 h ([5]; % iD/g Spleen) [%ID/g]	tissue uptake at 1 h ([5]; % iD/g Stomach) [%ID/g]	tissue uptake at 1 h ([5]; % iD/g Tumor) [%ID/g]	further results
C[C@@H](NC(=O)[C@@H](CCCNC(=N)N)NC(=O)[C@@H](CN)NC(=O)[C@@H](CO)NC(=O)[C@@H](CO)NC(=O)[C@@H](CO)NC(=O)CS)C(=O)Nc1ccc(C(=O)NCCC[C@@H]2C(=O)N[C@@H](CCCNC(=N)N)C(=O)N[C@@H](Cc3ccc4ccccc4c3)C(=O)NCC(=O)N[C@H](Cc3ccc(O)cc3)C(=O)N2C)cc1 [Tc-CXCR4-6] (I: Mercaptoacetyl-[dS][dS][dS][dDap][dR][dA][4Abz] / II: cyclo([dY][dNMeOrn]R[2Nal]G); amide I:C-II:2)	470 ± 17.4	6.56 ± 0.31	17.4 ± 0.40	525 (90 min) % Fc-131	526 ± 29.0	6.90 ± 0.29	−1.54 ± 0.02 (6)	3.67 ± 0.77	–	–	–	–	–	–	–	–	–	–	–	–	Internalized [%] ([1]; 90 min): 27.1 ± 0.50%; IC50 (CXCR4 [4]): 4.97 ± 1.34 nM
C[C@@H](NC(=O)[C@@H](CCCNC(=N)N)NC(=O)[C@@H](CN)NC(=O)[C@@H](CCSC1OC(CO)C(O)C(O)C1O)NC(=O)[C@@H](CCSC1OC(CO)C(O)C(O)C1O)NC(=O)[C@@H](CCSC1OC(CO)C(O)C(O)C1O)NC(=O)CS)C(=O)Nc1ccc(C(=O)NCCC[C@@H]2C(=O)N[C@@H](CCCNC(=N)N)C(=O)N[C@@H](Cc3ccc4ccccc4c3)C(=O)NCC(=O)N[C@H](Cc3ccc(O)cc3)C(=O)N2C)cc1 (stereo partly shown) [Tc-CXCR4-9] (I: Mercaptoacetyl-[d(hCys)](X4)[d(hCys)](X4)[d(hCys)](X4)[dDap][dR][dA][4Abz] / II: cyclo([2Nal]G[dY][dNMeOrn]R); amide I:C-II:4)	86.4 ± 9.62	3.69 ± 0.56	7.00 ± 0.74	103 (90 min) % Fc-131	103 ± 6.56	3.69 ± 0.49	−2.56 ± 0.03 (6)	3.5 ± 0.65	1.42	0.47	0.87	1.5	14.8	3.97	2.4	0.24	0.5	1.24	3.51	5.92	Internalized [%] ([1]; 90 min): 12.5 ± 0.67%
C[C@@H](NC(=O)[C@@H](CCCNC(=N)N)NC(=O)[C@@H](CN)NC(=O)[C@@H](CO)NC(=O)[C@@H](CCS[C@@H]1O[C@H](CO)[C@@H](O[C@@H]2O[C@H](CO)[C@H](O)[C@H](O)[C@H]2O)[C@H](O)[C@H]1O)NC(=O)[C@@H](CO)NC(=O)CS)C(=O)Nc1ccc(C(=O)NCCC[C@@H]2C(=O)N[C@@H](CCCNC(=N)N)C(=O)N[C@@H](Cc3ccc4ccccc4c3)C(=O)NCC(=O)N[C@H](Cc3ccc(O)cc3)C(=O)N2C)cc1 [Tc-CXCR4-11] (I: Mercaptoacetyl-[dS][d(hCys)](X2)[dS][dDap][dR][dA][4Abz] / II: cyclo([2Nal]G[dY][dNMeOrn]R); amide I:C-II:4)	178 ± 26.2	3.74 ± 0.33	6.98 ± 0.78	–	–	–	−2.94 ± 0.02 (8)	2.05 ± 0.95	1.36	0.71	0.95	0.72	29	5.94	2.85	0.28	0.48	2.31	1.16	6.71	Internalized in relation to 125I-Fc-131 [%] ([1]; 15 min): 71.9 ± 11.4%; Cell-bound [%] ([1]; 15 min): 1.79 ± 0.36%; Internalized [%] ([1]; 15 min): 3.16 ± 0.46%; Internalized in relation to 125I-Fc-131 [%] ([1]; 60 min): 145 ± 19.8%; Cell-bound [%] ([1]; 60 min): 7.02 ± 0.06%; Internalized [%] ([1]; 60 min): 7.10 ± 0.84%; Internalization [% Fc-131] ([1]; 120 min): 221 (120 min) % Fc-131; Internalized in relation to 125I-Fc-131 [%] ([1]; 120 min): 221 ± 23.4%; Cell-bound [%] ([1]; 120 min): 4.25 ± 0.67%; Internalized [%] ([1]; 120 min): 10.8 ± 1.13%
C[C@@H](NC(=O)[C@@H](CCCNC(=N)N)NC(=O)[C@@H](CN)NC(=O)[C@@H](CCCNC(N)=O)NC(=O)[C@@H](CCSC1OC(CO)C(OC2OC(CO)C(O)C(O)C2O)C(O)C1O)NC(=O)[C@@H](CCCNC(N)=O)NC(=O)CS)C(=O)Nc1ccc(C(=O)NCCC[C@@H]2C(=O)N[C@@H](CCCNC(=N)N)C(=O)N[C@@H](Cc3ccc4ccccc4c3)C(=O)NCC(=O)N[C@H](Cc3ccc(O)cc3)C(=O)N2C)cc1 (stereo partly shown) [Tc-CXCR4-12] (I: Mercaptoacetyl-[dCit][d(hCys)](X3)[dCit][dDap][dR][dA][4Abz] / II: cyclo([2Nal]G[dY][dNMeOrn]R); amide I:C-II:4)	284 ± 92.3	8.56 ± 0.66	9.64 ± 1.31	–	–	–	−2.92 ± 0.06 (8)	4.82 ± 1.36	1.74	0.95	1.14	1.25	35	11	3.96	0.34	0.8	4.72	2.03	7.39	Internalized in relation to 125I-Fc-131 [%] ([1]; 15 min): 192 ± 38.1%; Cell-bound [%] ([1]; 15 min): 3.77 ± 0.83%; Internalized [%] ([1]; 15 min): 3.79 ± 0.69%; Internalized in relation to 125I-Fc-131 [%] ([1]; 60 min): 395 ± 72.2%; Cell-bound [%] ([1]; 60 min): 14.1 ± 0.71%; Internalized [%] ([1]; 60 min): 11.6 ± 2.01%; Internalization [% Fc-131] ([1]; 120 min): 473 (120 min) % Fc-131; Internalized in relation to 125I-Fc-131 [%] ([1]; 120 min): 473 ± 41.9%; Cell-bound [%] ([1]; 120 min): 7.42 ± 2.12%; Internalized [%] ([1]; 120 min): 18.1 ± 0.85%
C[C@@H](NC(=O)[C@@H](CCCNC(=N)N)NC(=O)[C@@H](CN)NC(=O)c1ccc(NN)nc1)C(=O)Nc1ccc(C(=O)NCCC[C@@H]2C(=O)N[C@@H](CCCNC(=N)N)C(=O)N[C@@H](Cc3ccc4ccccc4c3)C(=O)NCC(=O)N[C@H](Cc3ccc(O)cc3)C(=O)N2C)cc1 [Tc-CXCR4-13] (cyclo([dY][dNMeOrn]([4Abz-dA-dR-dDap-HYNIC])R[2Nal]G))	434 ± 18.8	7.56 ± 0.38	18.0 ± 0.27	503 (90 min) % Fc-131	503 ± 16.2	7.65 ± 0.47	−2.74 ± 0.03 (5)	4.16 ± 1.5	1.56	0.81	0.78	0.57	29.5	2.62	1.94	1.52	0.36	2.43	1.98	8.02	Internalized [%] ([1]; 90 min): 25.5 ± 0.57%
